# From ChEMBL document CHEMBL3232968, “Potent airway smooth muscle relaxant effect of cynatratoside B, a steroidal glycoside isolated from Cynanchum stauntonii” (J Nat Prod, 2014)
# pEC50: −log10 of the molar value.
# What was measured:
# Trachea [1] = assay: Inhibition of carbachol-induced contraction of Sprague-Dawley rat tracheal rings after 30 mins by isometric tension technique; type: functional, tissue-based; details: 0.5 h
# Trachea [2] = assay: Inhibition of acetylcholine-induced contraction of Sprague-Dawley rat tracheal rings after 30 mins by isometric tension technique; type: functional, tissue-based
pEC50 (Trachea [2]; 0.5 h),Compound,pEC50 (Trachea [1]),inhibition (Trachea [2])
–,CC(C)NC[C@H](O)c1ccc(O)c(O)c1 [LEVISOPRENALINE],6.89,–
6.07,CO[C@@H]1C[C@H](O[C@H]2[C@@H](O)C[C@H](O[C@@H]3[C@@H](C)O[C@@H](O[C@H]4CC[C@@]5(C)C(=CC[C@@H]6C(=O)O[C@@H]7CO[C@]8(C)OC=C(CC[C@@H]65)[C@H]78)C4)C[C@H]3OC)O[C@@H]2C)O[C@@H](C)[C@@H]1O,6.32,Dose-dependent effect
–,C[C@@H]1O[C@@H](O[C@H]2[C@H](O[C@H]3CC[C@@]4(C)[C@@H](CC[C@]5(C)[C@@H]4CC=C4[C@@H]6CC(C)(C)CC[C@]6(C(=O)O)CC[C@]45C)[C@]3(C)CO)OC[C@H](O)[C@@H]2O)[C@H](O)[C@H](O)[C@H]1O [ALPHA-HEDERIN],6.00,–
